Data set [1] deals with HeLa. In words: Antiproliferative activity against BRCA1-proficient human HeLa cells after 7 days by celltiter-blue assay. The format is functional. The note with it: 168 h. In general terms: Alamar Blue is a resazurin reagent that responds to reducing activity.
Another data set concerns the target CYP3A4 (Homo sapiens, UniProt P08684). In words: Inhibition of CYP3A4 at 10 uM. Format: ADME.
Data set [2] can be described thus: Intrinsic clearance in rat liver microsomes. Format: ADME, Microsome. A general note: Microsomes from liver hold many membrane-bound enzymes, among them those of drug oxidation.
Data set [3] deals with Poly [ADP-ribose] polymerase 1 (Homo sapiens, UniProt P09874). In words: Inhibition of PARP1 by topcount microplate scintillation counter.
The subject of data set [4] is HeLa. In words: Antiproliferative activity against BRCA1-deficient human HeLa cells after 7 days by celltiter-blue assay. The format is functional. Conditions: 168 h.
Data set [5] in a line: Clearance in rat. Conditions: in vivo. The format is ADME, organism-based.
The subject of data set [6] is HeLa. In words: Selectivity ratio of CC50 for BRCA1-proficient human HeLa to CC50 for BRCA1-deficient human HeLa cells. Format: functional.
Data set [7] is described as follows: Lipophilicity, log D of the compound. The format is physicochemical. The note with it: octanol/water.

What is called CC50 is the concentration giving 50% cytotoxicity. As usually defined, the inhibition is the change of the read-out against control, counted positive when it falls. Low values mean a weak effect, high ones a strong effect. The term microsomal CLint denotes a measure of how fast metabolising enzymes remove a compound, apart from limits set by blood flow. A low value points to slow turnover. Usually IC50 stands for the concentration at which inhibition is half-maximal. A word on the clearance: it is the volume of plasma or blood freed of the substance per unit of time. Lower therefore signals inefficient removal. Usually logD stands for the decadic logarithm of the distribution of all forms, ionised or not, between an organic phase and buffer at a given pH. The low end stands for a more hydrophilic compound, the high end for a more lipophilic compound.

“And” between values parts separate entries of the source, which are not always exact repeats. Identical values can stand only once. Where only a bound is given, the exact number is not on record here.

Chain of Poly [ADP-ribose] polymerase 1 (P09874 whole entry): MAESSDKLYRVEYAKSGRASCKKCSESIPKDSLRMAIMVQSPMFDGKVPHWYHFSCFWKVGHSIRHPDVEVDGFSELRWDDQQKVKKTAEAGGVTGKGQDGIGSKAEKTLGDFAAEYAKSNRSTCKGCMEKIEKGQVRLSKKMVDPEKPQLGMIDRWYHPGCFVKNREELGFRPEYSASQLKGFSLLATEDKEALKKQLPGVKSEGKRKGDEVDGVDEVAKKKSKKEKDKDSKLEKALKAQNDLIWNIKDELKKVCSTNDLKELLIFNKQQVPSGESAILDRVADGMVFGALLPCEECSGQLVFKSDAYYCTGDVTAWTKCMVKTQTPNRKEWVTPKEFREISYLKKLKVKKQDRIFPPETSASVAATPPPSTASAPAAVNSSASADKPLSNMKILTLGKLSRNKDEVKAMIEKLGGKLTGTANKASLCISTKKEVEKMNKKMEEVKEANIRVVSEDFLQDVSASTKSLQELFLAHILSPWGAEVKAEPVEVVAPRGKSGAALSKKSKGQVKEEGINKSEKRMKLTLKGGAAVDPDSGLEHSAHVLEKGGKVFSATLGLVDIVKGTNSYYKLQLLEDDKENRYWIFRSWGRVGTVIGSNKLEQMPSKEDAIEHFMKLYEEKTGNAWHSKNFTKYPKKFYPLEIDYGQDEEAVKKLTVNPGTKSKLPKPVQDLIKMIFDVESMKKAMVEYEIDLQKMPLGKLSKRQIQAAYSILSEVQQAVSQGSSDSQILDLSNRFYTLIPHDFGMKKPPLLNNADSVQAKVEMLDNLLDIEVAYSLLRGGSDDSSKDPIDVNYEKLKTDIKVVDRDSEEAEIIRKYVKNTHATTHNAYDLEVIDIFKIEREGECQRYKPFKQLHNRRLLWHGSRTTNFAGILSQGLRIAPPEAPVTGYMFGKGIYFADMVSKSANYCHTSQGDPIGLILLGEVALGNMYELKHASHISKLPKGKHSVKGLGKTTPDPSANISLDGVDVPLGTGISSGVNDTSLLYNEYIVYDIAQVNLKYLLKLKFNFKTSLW
Chain of CYP3A4 (P08684 whole entry): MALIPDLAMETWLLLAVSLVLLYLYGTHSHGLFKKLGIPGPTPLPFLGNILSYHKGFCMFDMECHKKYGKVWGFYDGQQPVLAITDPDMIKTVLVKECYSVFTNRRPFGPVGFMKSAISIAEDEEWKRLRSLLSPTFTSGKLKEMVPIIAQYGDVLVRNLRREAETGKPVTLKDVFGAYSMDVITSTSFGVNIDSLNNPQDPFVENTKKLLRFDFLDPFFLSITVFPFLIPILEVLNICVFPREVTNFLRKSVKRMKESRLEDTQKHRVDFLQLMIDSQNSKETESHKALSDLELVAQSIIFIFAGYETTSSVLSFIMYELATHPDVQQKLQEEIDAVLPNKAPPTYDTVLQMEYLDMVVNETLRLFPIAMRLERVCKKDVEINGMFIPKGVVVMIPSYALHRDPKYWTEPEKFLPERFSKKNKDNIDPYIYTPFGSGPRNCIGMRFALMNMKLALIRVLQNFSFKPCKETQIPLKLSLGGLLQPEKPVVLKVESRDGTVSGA

As for `O=C(c1cc(Cc2c[nH]c(=O)c3cc(Cl)c(Cl)n23)ccc1F)N1CCC(N2CCCC2)CC1`, the half-maximal cytotoxic concentration (CC50) in the data set with HeLa [1] was > 5 µM; in the data set with HeLa [4] it was 0.12 µM. At 10 µM the inhibition against CYP3A4 was 30%. For the same compound, the microsomal CLint in data set [2] was determined as 135 µL/min/mg. Also, the half-inhibitory concentration (IC50) in data set [3] came out at 0.0054 µM. The compound also returned a clearance in data set [5] of 94 mL/min/kg.

For the compound `CNC(C)(C)C(=O)N1CCN(C(=O)c2cc(Cc3c[nH]c(=O)c4cc(Cl)c(Cl)n34)ccc2F)CC1`, the CC50 in the data set with HeLa [1] is > 5 µM; in the data set on HeLa [4], 0.053 µM. The compound also came in with a half-inhibitory concentration (IC50) in data set [3] of 0.0021 µM. Also, in data set [5], the clearance is > 200 mL/min/kg. Further, the Selectivity ratio with HeLa [6] was 100 and 50.

As for `N#Cc1cccnc1N1CCN(C(=O)c2cc(Cc3c[nH]c(=O)c4cc(Cl)c(Cl)n34)ccc2F)CC1`, the CC50 came to 1.6 µM in the data set on HeLa [1] and 0.062 µM in the data set on HeLa [4]. The IC50 in data set [3] came out at 0.0007 µM. Also, the Selectivity ratio with HeLa [6] was found to be 25.

Turning to `CC(C)C(=O)N1CCN(C(=O)c2cc(Cc3c[nH]c(=O)c4cc(Cl)c(Cl)n34)ccc2F)CC1`, the values for the CC50 in the data set with HeLa [1] and with HeLa [4] were > 5 µM and 0.15 µM, respectively. In data set [3], this compound came in with a half-maximal inhibitory concentration (IC50) of 0.0021 µM. Besides, the Selectivity ratio with HeLa [6] is 30.

In the case of `CN1CCCN(C(=O)c2cc(Cc3c[nH]c(=O)c4cc(Cl)c(Cl)n34)ccc2F)CC1`, the CC50 in the data set with HeLa [1] is > 20 µM; with HeLa [4], 1.1 µM. For the same compound, it took 0.005 µM to reach half-maximal inhibition in data set [3] (IC50).

For `CC(=O)N1CCCN(C(=O)c2cc(Cc3c[nH]c(=O)c4cc(Cl)c(Cl)n34)ccc2F)CC1`, the cytotoxic concentration (CC50) in the data set on HeLa [1] was > 20 µM; in the data set with HeLa [4], 5.7 µM. In data set [3], this compound had a half-inhibitory concentration (IC50) of 0.019 µM.

`O=C(c1cc(Cc2c[nH]c(=O)c3cc(Cl)c(Cl)n23)ccc1F)N1CCCNCC1`: the CC50 in the data set with HeLa [1] was > 20 µM; in the data set with HeLa [4], 0.17 µM. Moreover, the midpoint of inhibition in data set [3], the IC50, lay at 0.0026 µM. Also, the logD in data set [7] is 0.91.

For `O=C(c1cc(Cc2c[nH]c(=O)c3cccn23)ccc1F)N1CCCNCC1`, the CC50 with HeLa [1] and with HeLa [4] was > 20 µM each time. In addition, the half-inhibitory concentration (IC50) in data set [3] stood at 0.0018 µM. In data set [7], the log distribution coefficient (logD) is -0.89.

As for `O=C(c1ccccn1)N1CCN(C(=O)c2cc(Cc3c[nH]c(=O)c4cc(Cl)c(Cl)n34)ccc2F)CC1`, the CC50 with HeLa [1] is > 5 µM; in the data set on HeLa [4], 0.15 µM. Moreover, half-maximal inhibition in data set [3] (IC50) was put at 0.0024 µM. Moreover, the Selectivity ratio in the data set with HeLa [6] stood at 30.

Regarding `O=C(c1cc(Cc2c[nH]c(=O)c3c(Cl)cc(Cl)n23)ccc1F)N1CCCNCC1`, the CC50 in the data set with HeLa [1] was > 20 µM; in the data set on HeLa [4], 18 µM. 0.004 µM corresponded to half-maximal inhibition in data set [3] (IC50).

`O=C(c1cc(Cc2c[nH]c(=O)c3c(Cl)c(Cl)cn23)ccc1F)N1CCCNCC1`: the results for the CC50 with HeLa [1] and with HeLa [4] were > 20 µM and 0.22 µM, respectively. For the same compound, the concentration for half-maximal inhibition (IC50) in data set [3] is 0.0016 µM.

As to `O=C(c1cc(Cc2c[nH]c(=O)c3cc(Cl)c(Cl)n23)ccc1F)N1CCN(c2cccnc2)CC1`, the 50% cytotoxic concentration (CC50) in the data set on HeLa [1] and in the data set on HeLa [4] was > 5 µM throughout. The IC50 in data set [3] turned out to be 0.012 µM. For the same compound, the Selectivity ratio with HeLa [6] came to 20.

Turning to `O=C(c1cc(Cc2c[nH]c(=O)c3cc(Cl)cn23)ccc1F)N1CCCNCC1`, the CC50 is > 20 µM in the data set on HeLa [1] and 2.5 µM in the data set with HeLa [4]. The compound also returned an IC50 in data set [3] of 0.001 µM. The compound further gave a logD in data set [7] of 0.58.

Regarding `O=C(c1cc(Cc2c[nH]c(=O)c3cc(Cl)c(Cl)n23)ccc1F)N1CCC2(CCCN2)CC1`, the CC50 is > 10 µM with HeLa [1] and 0.048 µM with HeLa [4]. In addition, the Selectivity ratio in the data set on HeLa [6] worked out at 50.

With `Cc1cc2c(=O)[nH]cc(Cc3ccc(F)c(C(=O)N4CCCNCC4)c3)n2c1`, the CC50 is > 20 µM in the data set with HeLa [1] and 3.4 µM with HeLa [4]. Also, the IC50 in data set [3] worked out at 0.0016 µM.

These data come from ChEMBL document CHEMBL1158513, “Identification and SAR of novel pyrrolo[1,2-a]pyrazin-1(2H)-one derivatives as inhibitors of poly(ADP-ribose) polymerase-1 (PARP-1)” (Bioorg Med Chem Lett, 2010).
